The text below walks through data of BindingDB's records for doi:10.7270/Q20Z71R6 (Burnham Center For Chemical Genomics, 2010).

Where only a bound is given, the exact number is not on record here.

This assay has as its target Alkaline phosphatase, placental type (Homo sapiens, UniProt P05187). Description: activation of placental alkaline phosphatase – biochemical, uHTS hits, luminescence, selectivity assay for human IAP activator project, dose response (AID 488888).

Chain of Alkaline phosphatase, placental type (P05187 whole entry, looked up): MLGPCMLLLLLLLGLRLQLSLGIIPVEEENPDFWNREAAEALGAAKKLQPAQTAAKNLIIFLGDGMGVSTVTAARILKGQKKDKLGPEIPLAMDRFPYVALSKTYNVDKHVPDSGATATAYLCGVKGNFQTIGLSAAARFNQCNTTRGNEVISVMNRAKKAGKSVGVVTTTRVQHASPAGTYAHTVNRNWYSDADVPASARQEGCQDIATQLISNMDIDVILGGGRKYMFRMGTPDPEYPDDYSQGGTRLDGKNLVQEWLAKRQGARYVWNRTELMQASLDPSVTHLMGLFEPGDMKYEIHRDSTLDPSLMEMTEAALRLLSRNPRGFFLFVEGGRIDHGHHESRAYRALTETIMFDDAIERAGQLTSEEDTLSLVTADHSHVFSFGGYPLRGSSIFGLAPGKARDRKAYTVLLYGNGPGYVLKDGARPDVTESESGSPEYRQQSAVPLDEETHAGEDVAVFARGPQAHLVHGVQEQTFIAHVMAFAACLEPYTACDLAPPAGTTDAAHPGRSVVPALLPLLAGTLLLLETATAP

A word on the EC50: it is the midpoint of the concentration-response curve. Higher therefore signals a less potent agent. For `O=C(Nn1c(O)csc1=S)C(=O)Nn1c(O)csc1=S` [SMR000349781], the EC50 was determined as 14.5 µM.
For the compound `O=C(O)[C@H]1O[C@@H](Oc2c(-c3ccc(O)c(O)c3)oc3cc(O)cc(=O)c-3c2O)[C@H](O)[C@@H](O)[C@@H]1O` [quercetin glucuronide], the half-maximal effective concentration (EC50) is over 100 µM.
The same measure for `Cc1c(C(=O)NN=Cc2ccc(O)cc2O)[nH][nH]c1=O`: 13.2 µM; for `COc1cccc(C=NNC(=O)c2[nH][nH]c(=O)c2C)c1O` [N'-[(E)-(5-methoxy-6-oxidanylidene-cyclohexa-2,4-dien-1-ylidene)methyl]-4-methyl-5-oxidanylidene-1,4-dihydropyrazole-3-carbohydrazide]: 7.82 µM.
In the case of `CCc1ccc(CN=Nc2ncnc3nc[nH]c23)cc1` [MLS000419199] it was 13.4 µM; in that of `Cn1c(C(C#N)C(=O)c2ccc(Br)s2)nc2ccccc21` (stereo unspecified) [MLS001167394], 62.2 µM; in that of `O=Nc1[nH]c(=O)c(CC(=O)c2ccccc2)nc1NO` [SMR000539633], 9.75 µM.
In the case of `CCOC(=O)c1c(C)[nH]c(C(=O)N/N=C/C2C=C([N+](=O)[O-])C=CC2=O)c1C` (stereo unspecified) [ethyl 2,4-dimethyl-5-[[[(E)-(3-nitro-6-oxocyclohexa-2,4-dien-1-ylidene)methyl]amino]carbamoyl]-1H-pyrrole-3-carboxylate] it was 23.2 µM; in that of `Cc1cc(Br)ccc1SCC(=O)OCC(=O)C(C#N)c1nc2ccccc2[nH]1` (stereo unspecified) [2-[(4-bromo-2-methylphenyl)thio]acetic acid [3-cyano-3-(1,3-dihydrobenzimidazol-2-ylidene)-2-oxopropyl] ester], 25.5 µM; in that of `O=c1c2ccccc2nc(N=NCc2c(O)ccc3ccccc23)n1O` [SMR000145705], 35.2 µM.
`C=c1[nH]n(-c2nc3ccccc3[nH]2)c(=O)c1=CN(C)C` [(4E)-2-(1H-benzimidazol-2-yl)-4-(dimethylaminomethylidene)-5-methyl-pyrazol-3-one] returned a half-maximal effective concentration (EC50) of 15.3 µM.
